Experimental data published in patent US6787356B1, “Cell expansion system for use in neural transplantation” (The United States of America as represented by the …, priority 1998, dated 2004).

Experiments:
[1] = tested on: E12 mesencephalic precursors; assay: Dopaminergic differentiation of long-term expanded mesencephalic precursors, TH-ir cell count per well; type: cell-based, rat; conditions: for effect of antioxidants on dopaminergic cell number: FIG. 5, FIG. 6
Method: Ascorbic acid was obtained from SIGMA (A-1417: Lot 105H0138) and used at various concentrations ranging from 1 nM-1 mM to obtain a dose-response curve. The effect of ascorbic acid on dopaminergic differentiation of long-term expanded mesencephalic precursors was tested during early and late proliferation as well as during cell differentiation.
Briefly, E12 mesencephalic precursors were proliferated for 12-14 days in vitro with 20 ng/ml bFGF (average expansion factor 40-200 fold) followed by 4-7 days of differentiation upon bFGF withdrawal and exposure to the various differentiation agents refers to the experimental assay in general. We tested the effects of many possible differentiation agents such as NGF, BDNF, NT3, NT4/5, GDNF, SHH, FGF8, interleukin1, Neurturin, cGMP and many others.
Cells were treated with 100 uM ascorbic acid. Ascorbic acid was dissolved in PBS with 0.1% bovine serum albumin at 100 mM stock solution. It was then used in 1:1000 dilution by adding it directly into the culture medium Cells were then fixed in 0.15% picric acid/4% paraformaldehyde and stained for tyrosine-hydroxylase (PelFreeze P40101-0). The number of TH-ir cells per well were scored using a stereological counting frame.
A dose response curve of the effect of stereoisomer D-iso-ascorbic acid was established using D-iso Ascorbic acid (I-0502 SIGMA). D-iso-ascorbic acid was used with the same protocol as L-ascorbic acid regarding stock solution, concentrations and mode of application. D-iso ascorbic acid has the same anti-oxydative properties but different other biological properties than ascorbic acid.

[2] = tested on: bFGF expanded precursor derived TH+ neurons; assay: Dopamine release of precursor derived TH+ neurons, reverse phase HPLC with electrochemical detection; type: cell-based, rat; conditions: conditioned medium, buffer solution, buffer + 56 mM KCl; FIG. 7 and 8
Method: To test the biochemical function of precursor derived tyrosine hydroxylase expressing (TH+) neurons, the supernatant was tested for dopamine release using reverse phase HPLC with electrochemical detection. Dopamine levels were assessed in conditioned medium (24 hours of incubation), HBSS buffer (15 minutes), HBSS buffer +56 mM KCl. Dopamine was subsequently extracted by aluminum absorption and measured by reverse phase HPLC with electrochemical detection.

[3] = tested on: differentiated mesencephalic precursor culture; assay: Oxidative stress assays (lipid peroxydation, H2O2, oxidative stress marker staining); type: cell-based, rat; conditions: data not shown
Method: Lipid peroxydation is a colorimetric assay (OXIS BIOXYTECH® LPO-568™; Oxis International Inc.) and was used according to the specifications of the manufacturer. H2O2 assay measures the conversion of 2′,7′ dicholorofluorescin diacetate (Molecular Probes d-399) into 2′,7′ dicholorofluorescin catalyzed by H2O2. The assay was performed according to the specifications of the manufacturer. Immunohistochemistry for oxidative stress markers by the DAB-peroxidase technique was performed on cells differentiated in the presence or absence of ascorbic acid, glutathione or […] plus ebselin.

[4] = tested on: expanded and differentiated mesencephalic precursors; assay: KCl evoked dopamine release of differentiated expanded precursors, HPLC; type: cell-based, rat
Method: Tissue culture was prepared as described in Example 1. The growth medium of expanded precursors from 3 independent culture series was collected after 5-7 days of differentiation under serum-free conditions and immediately stabilized by adding 88 μl of 85% orthophosphoric acid and 4.4 mg of metabisulfite to each sample ml. Additional cultures of the same series were placed in 5 ml Hank's basic salt solution (HBSS) for […] at 37° C. either under basal conditions (HBSS only) or under stimulation with 56 mM KCl. 56 mM KCl was added to assay evoked release, i.e., dopamine release in response to depolarization by KCl (depolarization by KCl leads to release of synaptic vesicles in neurons). This provides a more specific test than release in HBSS where synaptic release is not directly tested.
Dopamine staining was carried out on cultures using dopamine polyclonal 1:500 (Chemicon). The cultures were fixed in 5% glutaraldehyde and 1% metabisulfite in Tris buffer and then kept in metabisulfite containing solutions prior to incubation in the secondary antibody. Dopamine was extracted by aluminum adsorption as described by Studer et al. (1996) Brain Res.Bull. 41, 143-150. […] No dopamine was detected in unconditioned control medium and HBSS.

[5] = tested on: mesencephalic precursors expanded with bFGF for 11 days; conditions: dopamine 1 nM-1 mM; cAMP 1 mM; DMEM/F12/N2
[6] = tested on: expanded mesencephalic precursors differentiated as free floating reaggregates; assay: Reaggregation system (roller drum) differentiation, immunohistochemistry of reaggregates; type: cell-based, rat; conditions: for total number of TH-ir cells/sphere in serum-supplemented medium: GDNF, BDNF, NT4/5 10 ng/ml, SHH 2.5 μg/ml, data not shown
Method: Cells were cultured as described in Example 1 and differentiated as free floating aggregates in a medium containing 10% fetal bovine serum (FBS) and maintained in a roller drum system. The cell suspension (200,000 cells/ml) was distributed in 15 ml Falcon tubes (1 ml/tube) and placed in a roller drum (Bellco) and rotated at a speed of 1-4 revolutions per minute and a temperature of 37° C. in a dry incubator (no additional humidity) in an atmosphere containing 5% CO2.
Medium in all these experiments described in this section was Neurobasal/B27 as described above. We tested the effect of GDNF, BDNF, SHH in the presence and in the absence of 10% fetal bovine serum (always with Neurobasal/B27 medium as a “basal medium”)
After 7 days, the test tubes were removed from the roller drum and the reaggregation of the cells was examined immunohistochemistry after sectioning the cells (see below). […] Reaggregates were fixed in 4% paraformalehyde/0.15 picric acid in PBS for 30-60 minutes at room temperature, equilibrated in 30% sucrose, cut into 20 um thick sections on a freezing microtome and adhered to a gelatine precoated glass carrier according to standard histological guidelines.
The differentiation medium for reaggregate cultures consisted of Neurobasal®/2% B27® (Gibco, Life Technologies) with or without fetal bovine serum (FBS; 10%, Gibco), glial derived neurotrophic factor (GDNF; 10 ng/ml; Peprotech), brain derived neurotrophic factor (BDNF; 10 ng/ml; Peprotech), neurotrophin 4/5 (NT4/5; 10 ng/ml; Peprotech), SHH (2.5 μg/ml; kindly provided by Dr. Thomas Muller, at the Labrotory of Molecular Biology, currently at the Max Delbrueck Univ. in Berlin; SHH is now commercially avail. fro R&D).
Using standard immunohistochemical procedures known to those of skill in the art, the following antibodies were used to examine the neuronal phenotypes present in differentiated aggregates: GABA polyclonal 1:2000 (SIGMA), serotonin polyclonal 1:8000 (SIGMA), ChAT polyclonal 1:500 (Chemicon), GFAP polyclonal 1:100 (Chemicon), GalC monoclonal 1:50 (Boehringer-Mannheim),
Total graft volume was estimated using the Cavalieri's estimator as described by Gundersen et al. (1988) APIMS 96, 379-394. TH-ir cells were counted within the outlined graft area as used for volume estimation. Uniform randomly chosen sections of individual reaggregates were analyzed for the total number of TH-ir cells by means of a stereological grid (fractionator). Conventional and confocal images were obtained with Axiophot and Axiovert microscopes respectively (Zeiss). Confocal image stacks were acquired by single and dual wavelength excitation at 488 and 568 nm. […] The effect of serum and growth factors was analyzed using ANOVA and Dunnett posthoc comparisons. […]

How did the “effect of antioxidants on dopaminergic cell number” value (“effect of antioxidants” for short) [1] turn out when `CC(=O)N[C@H](CS)C(=O)O` [D-acetylcystein] was run?
Its value is “none of the antioxidants tested influenced dopaminergic cell number”.

How did the “yield of dopaminergic neurons compared with other differentiation agents tested” value ([1]; 100 uM, 12-14 days expansion, 4-7 days differentiation) turn out when `O=C1O[C@H]([C@@H](O)CO)C(O)=C1O` [ascorbic acid] was run?
Its value is “most effective agent of all agents tested”.

What about the “effect on dopaminergic yield, treatment during cell differentiation (P1 diff.)” value ([1]; FIG. 6) of the same molecule?
The value was “acts mostly during the differentiation phase”.

And the “effect on dopaminergic yield, treatment during early expansion (Po exp.)” value ([1]; FIG. 6)?
Its value is “small improvement in dopaminergic yield”.

What about the “effect on dopaminergic yield, treatment during late expansion (P1 exp.)” value ([1]; FIG. 6) of the same molecule?
Its value is “slightly negative effect”.

What about the “concentration of maximal effect on TH-ir cell number (dose-response)” value ([1]; during cell differentiation, range 1 nM-1 mM, FIG. 5) of the same molecule?
Its value is 100 µM.

And the “dopamine levels after treatment, long-term expanded precursors (P1)” value [2]?
The value was “significant increase”.

And the “dopamine levels after treatment, short term expanded precursors (Po)” value [2]?
Its value is “significant increase”.

And the “differences to control in lipid peroxydation, H2O2 levels and staining intensity for oxydative stress markers” value [3]?
Its value is “No significant differences”.

With `N[C@@H](CCC(=O)N[C@@H](CS)C(=O)NCC(=O)O)C(=O)O` [glutathione] as the molecule, how does the “effect of antioxidants” value [1] read?
Its value is “none of the antioxidants tested influenced dopaminergic cell number”.

Which results are given for `[Cl-].[K+]` [KCl]?
increase in dopamine levels in the supernatant ([4]; 56 mM KCl in HBSS for 25 minutes vs HBSS only): 3-4 fold; dopamine level in the supernatant, evoked release ([4]; 56 mM KCl in HBSS for 25 minutes, N=3): 572+/−145 pg dopamine/ml

Which “effect of antioxidants” value [1] does the source give for `O=c1c2ccccc2[se]n1-c1ccccc1` [ebselin] here?
The value was “none of the antioxidants tested influenced dopaminergic cell number”.

How did the “additional effect on yield of dopaminergic neurons in combination with ascorbic acid (100 uM)” value [5] turn out when `NCCc1ccc(O)c(O)c1` [dopamine] was run?
The value was “no significant additional effect”.

For `O=C1O[C@H]([C@H](O)CO)C(O)=C1O` [D-iso ascorbic acid, D-iso-ascorbic acid], which “number of dopaminergic neurons, lower than in the ascorbic acid group” value ([1]; optimum concentration of 100 μM) is on record?
The value was 48%.

B1: NT4/5: neurotrophin 4/5, Peprotech (protein, UniProt P34130 81-210, looked up)
Neurotrophin-4: GVSETAPASRRGELAVCDAVSGWVTDRRTAVDLRGREVEVLGEVPAAGGSPLRQYFFETRCKADNAEEGGPGAGGGGCRGVDRRHWVSECKAKQSYVRALTADAQGRVGWRWIRIDTACVCTLLSRTGRA
For B1, which “total number of TH-ir cells/sphere in serum-supplemented medium” value (shortened to “total number of TH-ir cells/sphere”) [6] is on record?
The value was “did not cause a significant increase”.

B2: GDNF: glial derived neurotrophic factor, Peprotech (protein, UniProt P39905 78-211, looked up)
Glial cell line-derived …: SPDKQMAVLPRRERNRQAAAANPENSRGKGRRGQRGKNRGCVLTAIHLNVTDLGLGYETKEELIFRYCSGSCDAAETTYDKILKNLSRNRRLVSDKVGQACCRPIAFDDDLSFLDDNLVYHILRKHSAKRCGCI
B2 was tested. Which “TH-ir cell yield under serum-free conditions” value ([6]; GDNF 10 ng/ml, N=8, p<0.05 vs control) did it give?
Its value is 3451+/−621.

And the “total number of TH-ir cells/sphere” value [6]?
Its value is “did not cause a significant increase”.

B3: BDNF: brain derived neurotrophic factor, Peprotech (protein, UniProt P23560 19-247, looked up)
Neurotrophic factor BDNF …: APMKEANIRGQGGLAYPGVRTHGTLESVNGPKAGSRGLTSLADTFEHVIEELLDEDQKVRPNEENNKDADLYTSRVMLSSQVPLEPPLLFLLEEYKNYLDAANMSMRVRRHSDPARRGELSVCDSISEWVTAADKKTAVDMSGGTVTVLEKVPVSKGQLKQYFYETKCNPMGYTKEGCRGIDKRHWNSQCRTTQSYVRALTMDSKKRIGWRFIRIDTSCVCTLTIKRGR
How did the “total number of TH-ir cells/sphere” value [6] turn out when B3 was run?
Its value is “did not cause a significant increase”.
